# Assay results: PubChem BioAssay (NCI)
#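 Protocol summary: plate cells (96-well), add compound at 5 concentrations, incubate 48 h, interpolate endpoints linearly. The concentration for 50% growth inhibition is given as GI50. The concentration for full growth arrest is given as TGI.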
# Assays:
# Assay in all cases: NCI tumour cell line growth inhibition, 48 h
# [1] = system: SK-MEL-5 melanoma
# [2] = system: SK-MEL-28 melanoma
# [3] = system: OVCAR-3 ovarian
# [4] = system: A498 renal
# [5] = system: EKVX NSCLC
# [6] = system: UACC-257 melanoma
# [7] = system: OVCAR-8 ovarian
# [8] = system: UACC-62 melanoma
# [9] = system: PC-3 prostate
# [10] = system: BT-549 breast
# [11] = system: NCI/ADR-RES ovarian
# [12] = system: HOP-92 NSCLC
# [13] = system: SN12C renal
# [14] = system: MDA-MB-435
# [15] = system: SF-539 CNS
# [16] = system: SF-295 CNS
# [17] = system: HCT-116 colon
# [18] = system: SNB-19 CNS
# [19] = system: OVCAR-4 ovarian
# [20] = system: SF-268 CNS
# [21] = system: HCC-2998 colon
# [22] = system: K-562 leukemia
# [23] = system: M14 melanoma
# [24] = system: RPMI-8226 leukemia
# [25] = system: UO-31 renal
# [26] = system: TK-10 renal
# [27] = system: KM12 colon
# [28] = system: IGROV1 ovarian
# [29] = system: U251 CNS
# [30] = system: A549 NSCLC
# [31] = system: OVCAR-5 ovarian
# [32] = system: MOLT-4 leukemia
# [33] = system: SW-620 colon
# [34] = system: SK-OV-3 ovarian
# [35] = system: HT29 colon
# [36] = system: ACHN renal
# [37] = system: LOX IMVI melanoma
# [38] = system: COLO 205 colon
# [39] = system: SR leukemia
# [40] = system: HOP-62 NSCLC
# [41] = system: MDA-MB-231 breast
# [42] = system: CAKI-1 renal
# [43] = system: DU-145 prostate
# [44] = system: NCI-H522 lung
# [45] = system: NCI-H226 lung
# [46] = system: 786-0 renal
# [47] = system: MALME-3M melanoma
# [48] = system: NCI-H460 lung
# [49] = system: RXF 393 renal
# [50] = system: SNB-75 CNS
# [51] = system: SK-MEL-2 melanoma
# [52] = system: HL-60(TB) leukemia
# [53] = system: HS 578T breast
# [54] = system: MCF7 breast
# [55] = system: HCT-15 colon
# [56] = system: CCRF-CEM leukemia
compound,measurement,setting,value
O=C1Nc2cc(OC(F)(F)F)ccc2Oc2ccc(-c3ccnc(N4CC[C@H](O)C4)c3)cc21,GI50,[1],37.8 nM
same,TGI,[1],487 nM
same,GI50,[2],1200 nM
same,TGI,[2],2600 nM
same,GI50,[3],< 11.7 nM
same,TGI,[3],1330 nM
same,GI50,[4],10600 nM
same,TGI,[4],25900 nM
same,GI50,[5],43.5 nM
same,TGI,[5],20400 nM
same,GI50,[6],3600 nM
same,TGI,[6],9370 nM
same,GI50,[7],34.3 nM
same,TGI,[7],651 nM
same,GI50,[8],< 17.3 nM
same,TGI,[8],5240 nM
same,GI50,[9],19.4 nM
same,TGI,[9],5480 nM
same,GI50,[10],138 nM
same,TGI,[10],1690 nM
same,GI50,[11],30.6 nM
same,TGI,[11],6250 nM
same,GI50,[12],1810 nM
same,TGI,[12],18700 nM
same,GI50,[13],103 nM
same,TGI,[13],2680 nM
same,GI50,[14],< 10 nM
same,TGI,[14],< 11.6 nM
same,GI50,[15],22.7 nM
same,TGI,[15],1040 nM
same,GI50,[16],16.6 nM
same,TGI,[16],6260 nM
same,GI50,[17],< 10 nM
same,TGI,[17],1190 nM
same,GI50,[18],36.6 nM
same,TGI,[18],5740 nM
same,GI50,[19],1120 nM
same,TGI,[19],3000 nM
same,GI50,[20],485 nM
same,TGI,[20],15800 nM
same,GI50,[21],30 nM
same,TGI,[21],1550 nM
same,GI50,[22],< 10 nM
same,TGI,[22],1730 nM
same,GI50,[23],11.4 nM
same,TGI,[23],1810 nM
same,GI50,[24],34.9 nM
same,TGI,[24],2050 nM
same,GI50,[25],57 nM
same,TGI,[25],5630 nM
same,GI50,[26],7650 nM
same,TGI,[26],17300 nM
same,GI50,[27],< 15.2 nM
same,TGI,[27],2470 nM
same,GI50,[28],43.1 nM
same,TGI,[28],8780 nM
same,GI50,[29],35.8 nM
same,TGI,[29],1850 nM
same,GI50,[30],39.2 nM
same,TGI,[30],3460 nM
same,GI50,[31],49.2 nM
same,TGI,[31],6370 nM
same,GI50,[32],32.7 nM
same,TGI,[32],2160 nM
same,GI50,[33],< 17.7 nM
same,TGI,[33],1660 nM
same,GI50,[34],36.7 nM
same,TGI,[34],14700 nM
same,GI50,[35],16.3 nM
same,TGI,[35],261 nM
same,GI50,[36],55.2 nM
same,TGI,[36],5150 nM
same,GI50,[37],32 nM
same,TGI,[37],1490 nM
same,GI50,[38],18.1 nM
same,TGI,[38],51.3 nM
same,GI50,[39],< 10 nM
same,TGI,[39],2210 nM
same,GI50,[40],35.1 nM
same,TGI,[40],4530 nM
same,GI50,[41],48 nM
same,TGI,[41],1830 nM
same,GI50,[42],< 10 nM
same,TGI,[42],9640 nM
same,GI50,[43],44.6 nM
same,TGI,[43],4380 nM
same,GI50,[44],< 13.1 nM
same,TGI,[44],42.9 nM
same,GI50,[45],280 nM
same,TGI,[45],5540 nM
same,GI50,[46],31.6 nM
same,TGI,[46],2740 nM
same,GI50,[47],48.9 nM
same,TGI,[47],2090 nM
same,GI50,[48],< 12.9 nM
same,TGI,[48],1060 nM
same,GI50,[49],< 15.4 nM
same,TGI,[49],323 nM
same,GI50,[50],< 16.3 nM
same,TGI,[50],1120 nM
same,GI50,[51],32.1 nM
same,TGI,[51],18500 nM
same,GI50,[52],< 10 nM
same,TGI,[52],105 nM
same,GI50,[53],23.9 nM
same,TGI,[53],5590 nM
same,GI50,[54],< 10 nM
same,TGI,[54],1620 nM
same,GI50,[55],10.3 nM
same,TGI,[55],2860 nM
same,GI50,[56],25.1 nM
same,TGI,[56],2600 nM
